Laboratory results as given in patent US11059833B2, “BCKDK inhibitors” (Pfizer Inc., priority 2019, dated 2021).
Like-named read-outs stand apart in the source and are kept apart here.

Experiments:
[1] = tested on: phosphorylation of S293 BCKDH; assay: Phospho BCKDHA AlphaLISA in human skeletal myocytes; type: cell-based; conditions: 1 h, 60 minutes, geometric mean
Method: Prior to conducting the assay, BCKDH antibodies (Bethyl A303-790A) were biotinylated using the ChromaLink™ One-Shot Antibody Biotinylation Kit B-9007-009K and phospho Ser293 BCKDHA antibodies (Bethyl A304-672A) were directly conjugated to AlphaLISA Acceptor Beads (custom conjugation performed by Perkin Elmer's Lance/Delfia Custom Services, Boston Mass.). Human skeletal myocytes (Gibco A11440) were plated in a 384 well plate at a density of 7500 live cells/well and grown in skeletal muscle growth media containing the media supplement and chick embryo extract (Promocell C-23060 and C-23160, MP92850145). After overnight incubation, media was removed, and BCKDK inhibitors were added in assay media (growth media diluted 10-fold in PBS). After 60 minutes, the media was removed, the cells were washed with PBS and lysed in 10 μL of buffer (Cell Signaling #9803) containing 2 nM biotinylated total BCKDH antibodies. Samples were incubated for 60 minutes, and 5 μL of AlphaLISA acceptor beads conjugated with phospho-S293 BCKDH antibodies were added 1× Alpha buffer. After a 60 minute incubation, 5 μL streptavidin donor beads (40 μg/μL) beads were added in 1× Alpha buffer while protecting from light. Fluorescence was emitted when the phospho and total BCKDH antibodies were within proximity, signifying phosphorylation of S293 BCKDH. Fluorescence was monitored on the Envision plate reader. The zero percent effect was determined from DMSO treatment and the maximal effect was assessed relative to the BCKDK inhibitor BT2. IC50 curves were generated using ActivityBase software (IDBS, Boston Mass.).

human BCKDK = target: T1, human BCKDK (Homo sapiens, UniProt O14874); assay: In Vitro FRET (TR-FRET) BCKDK activity assay, phosphorylation of BCKDHE1α-E2 fusion substrate; type: biochemical
T1 construct: human BCKDK (residues 31-412 of the protein pre-processing); 6xHis (N, cleaved yes); MBP (N, cleaved yes); TEV protease site (ENLYFQG) (N, cleaved yes); made in house; host or cells: BL21(DE3) E. coli, co-expressed with GroEL-GroES
Method: For lipoylation, fusion substrate was incubated with LpIA at a 10:1 (substrate:LplA) ratio in 20 mM sodium phosphate pH 7.4, 6 mM MgCl2, 4 mM ATP, 2 mM DTT, 3 mM DL-6,8-thioctic acid at 37° C.
BCKDK activity was monitored by phosphorylation of a HIS-tagged fusion BCKDHE1α-E2 substrate protein as described above and was detected using a time resolved-fluorescence resonance energy transfer (TR-FRET) assay system. Compounds were spotted into a 384 well plate, and purified human BCKDK protein was added to the plated compound. […] The reaction was terminated with EDTA. […] Signal intensity was proportional to the level of BCKDK-mediated substrate phosphorylation. Reactions were normalized to zero percent effect with DMSO and one hundred percent effect with 600 μM Radicicol, a known BCKDK inhibitor. IC50 curves were generated using ABASE software (IDBS, Boston Mass.).

[2] = tested on: Dahl salt sensitive male rats; assay: Heart failure rat model (high salt diet); type: in vivo; conditions: 100 mg/kg PO once daily
Method: Dahl salt sensitive male rats (Charles River strain SS/JrHsdMcwiCrl) were fed control diet or 6% high salt diet (iD03121701-AIN-76a rodent diet with added 6% NaCl) for 21 weeks in total. At week 5, the high salt diet-fed rats were dosed PO with 100 mg/kg BT2 or vehicle once daily for the last 16 weeks of study. Echocardiography was performed at week 18 (myocardial performance index (MPI): control diet 0.567±0.034, high salt+vehicle 0.810±0.039, high salt+BT2 0.660±0.030; Isovolumic relaxation time (IVRT): control diet 23.154±0.60 ms, high salt+vehicle 36.507±2.20 ms, high salt+BT2 31.605±1.78 ms; Intraventricular septal thickness at diastole (IVDd): control 2.03±0.088 mm, high salt+vehicle 2.877±0.110 mm, high salt+BT2 2.489±0.089 mm). NT-pro-BNP (MSD K153JKD; control […], high salt+vehicle 1003.0±200.8 μg/mL, high salt+BT2 503.4±84.96 μg/mL), and proANP (MSD K153MBD; control 33.50±5.4 ng/mL, high salt 65.19±8.3 ng/mL, high salt+BT2 38.81±7.0 ng/mL) levels were measured in plasma using MSD assays at the terminal time point. Heart weights were measured at euthanasia and normalized to tibia length (heart/tibia control 0.033±0.001 g/mm; high salt+vehicle 0.042±0.001 g/mm, high salt+BT2 0.038±0.001 g/mm).

[3] = tested on: Mice fed 60% high fat diet; assay: Diabetic animal model: fasting glucose and oral glucose tolerance test; type: in vivo; conditions: for Area under the curve for the glucose tolerance test as percent of vehicle treated group: 1 g/kg dextrose; for fasting plasma glucose levels: high fat diet mice, mean±SEM
Method: Blood glucose was measured 15, 30, 60, and 120 minutes after the gavage, and the data were plotted and analyzed as area under the curve using GraphPad Prism 8.0 (GraphPad Software, La Jolla, Calif.). Blood was concomitantly collected in EDTA tubes at the 0, 15 and 30 minute time points, spun down at 10K RPM for 10 minutes. […] Area under the curve for the glucose tolerance test as percent of vehicle treated group was 100.0±3 (vehicle, n=29), 100±4 (20 mg/kg, n=18), 87±2 (60 mg/kg, n=30), 78±2 (180 mg/kg, n=16).

[4] = purified human BCKDK, 15 μM ATP, geometric mean, read-out: In Vitro FRET IC50

Compound	IC50 [1]	IC50 (human BCKDK; [4])	also measured
O=C(O)c1cc2sc(F)c(F)c2s1 [Example 4, 5,6-Difluorothieno[3,2-b]thiophene-2-carboxylic acid]	390 nM	58 nM	–
O=C(O)c1sc2cc(Cl)sc2c1C(F)F [Example 11, 5-chloro-3-(difluoromethyl)thieno[3,2-b]thiophene-2-carboxylic acid]	2200 nM	370 nM	–
O=C(O)c1sc2cc(Cl)ccc2c1Cl [BT2, 3,6-dichloro-1-benzothiophene-2-carboxylic acid]	4500 nM	–	heart weight normalized to tibia length (heart/tibia) ([2]; at euthanasia (high salt+vehicle 0.042±0.001, control 0.033±0.001)): 0.038±0.001 g/mm; myocardial performance index (MPI) ([2]; echocardiography at week 18 (high salt+vehicle 0.810±0.039, control diet 0.567±0.034)): 0.660±0.030; Intraventricular septal thickness at diastole (IVDd) ([2]; echocardiography at week 18 (high salt+vehicle 2.877±0.110, control 2.03±0.088)): 2.489±0.089 mm; Isovolumic relaxation time (IVRT) ([2]; echocardiography at week 18 (high salt+vehicle 36.507±2.20, control diet 23.154±0.60)): 31.605 ± 1.78 ms; proANP level in plasma ([2]; terminal time point (high salt 65.19±8.3, control 33.50±5.4)): 38.81 ± 7.0 ng/mL; NT-pro-BNP level in plasma ([2]; terminal time point (high salt+vehicle 1003.0±200.8, control 294.9±26.04)): 503.4 ± 84.96 µg/mL; IC50 (human BCKDK): 1300 nM
O=C(O)c1sc2cc(Cl)sc2c1F [Example 7, 5-chloro-3-fluorothieno[3,2-b]thiophene-2-carboxylic acid]	1100 nM	260 nM	–
O=C(O)c1sc2c(F)c(F)sc2c1Cl [Example 8, 3-chloro-5,6-difluorothieno[3,2-b]thiophene-2-carboxylic acid]	1800 nM	260 nM	–
O=C(O)c1sc2cc(F)sc2c1C(F)F [Example 3, 3-(Difluoromethyl)-5-fluorothieno[3,2-b]thiophene-2-carboxylic acid]	1800 nM	65 nM	–
O=C(O)c1sc2cc(F)sc2c1Br [Example 2, 3-Bromo-5-fluorothieno[3,2-b]thiophene-2-carboxylic acid]	1500 nM	120 nM	–
O=C(O)c1sc2cc(F)sc2c1Cl [Example 1, 3-Chloro-5-fluorothieno[3,2-b]thiophene-2-carboxylic acid]	720 nM	–	Area under the curve for the glucose tolerance test as percent of vehicle treated group ([3]; 20 mg/kg PO, n=18 (vehicle 100.0±3)): 100±4% of vehicle treated group; fasting plasma glucose levels ([3]; 20 mg/kg PO, n=18 (vehicle 237±5)): 230 ± 8 mg/dL; Area under the curve for the glucose tolerance test as percent of vehicle treated group ([3]; 60 mg/kg PO, n=30 (vehicle 100.0±3)): 87±2% of vehicle treated group; fasting plasma glucose levels ([3]; 60 mg/kg PO, n=40 (vehicle 237±5)): 221 ± 4 mg/dL; Area under the curve for the glucose tolerance test as percent of vehicle treated group ([3]; 180 mg/kg PO, n=16 (vehicle 100.0±3)): 78±2% of vehicle treated group; fasting plasma glucose levels ([3]; 180 mg/kg PO, n=19 (vehicle 237±5)): 206 ± 5 mg/dL
O=C(O)c1sc2cc(F)ccc2c1Cl [BT2F, 3-chloro-6-fluoro-1-benzothiophene-2-carboxylic acid, reference compound]	–	810 nM	–
O=C(O)c1cc2sc(F)c(Cl)c2s1 [Example 10, 6-chloro-5-fluorothieno[3,2-b]thiophene-2-carboxylic acid]	3400 nM	330 nM	–

The remaining molecules from weak to strong by IC50 (human BCKDK; [4]), led by results:

IC50 [1]	IC50 (human BCKDK; [4])	Compound	also measured
3600 nM	880 nM	CCc1c(C(=O)O)sc2cc(Cl)sc12 [Example 16, 5-chloro-3-ethylthieno[3,2-b]thiophene-2-carboxylic acid]	–
2800 nM	840 nM	O=C(O)c1sc2cc(Cl)sc2c1Br [Example 15, ammonium 3-bromo-5-chlorothieno[3,2-b]thiophene-2-carboxylate]	–
–	800 nM	Cc1c(C(=O)O)sc2cc(Cl)sc12 [Example 14, 5-chloro-3-methylthieno[3,2-b]thiophene-2-carboxylic acid]	–
1900 nM	470 nM	O=C(O)c1sc2c(F)c(Cl)sc2c1F [Example 13, 5-chloro-3,6-difluorothieno[3,2-b]thiophene-2-carboxylic acid]	–
1200 nM	400 nM	O=C(O)c1cc2sc(Cl)c(F)c2s1 [Example 12, 5-chloro-6-fluorothieno[3,2-b]thiophene-2-carboxylic acid]	–
1600 nM	280 nM	Cc1c(C(=O)O)sc2cc(F)sc12 [Example 9, 5-fluoro-3-methylthieno[3,2-b]thiophene-2-carboxylic acid]	–
4200 nM	230 nM	Cc1c(F)sc2cc(C(=O)O)sc12 [Example 6, 5-fluoro-6-methylthieno[3,2-b]thiophene-2-carboxylic acid]	–
410 nM	140 nM	O=C(O)c1sc2cc(F)sc2c1F [Example 5, 3,5-Difluorothieno[3,2-b]thiophene-2-carboxylic acid]	–
